# Experiments:
# barnyardgrass = assay: Test Example 2: soil application on the day after sowing, growth inhibition rate, barnyardgrass; type: in vivo, Echinochloa crus-galli L.; details: 250 g/ha active ingredient, observed on 19th to 24th day
# Procedure, shortened: (§1)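 Upland soil pots sown with crop and weed seeds; next day wettable powder or emulsifiable concentrate at prescribed active-ingredient amounts, diluted to 500 L/ha water, sprayed onto soil. Growth inhibition scored visually 19–24 days later, 0 (as untreated) to 100% (complete kill).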
# velvetleaf = assay: Test Example 2: soil application on the day after sowing, growth inhibition rate, velvetleaf; type: in vivo, Abutilon theophrasti MEDIC.; details: 250 g/ha active ingredient, observed on 19th to 24th day
# Procedure, shortened: as §1
# greenfoxtail = assay: Test Example 2: soil application on the day after sowing, growth inhibition rate, greenfoxtail; type: in vivo, Setaria viridis L.; details: 250 g/ha active ingredient, observed on 19th to 24th day
# Procedure, shortened: as §1
# soybean = assay: Test Example 2: soil application on the day after sowing, growth inhibition rate, soybean; type: in vivo, Glycine max Merr.; details: 250 g/ha active ingredient, observed on 19th to 24th day
# Procedure, shortened: as §1
# [1] = test system: prickly sida (Sida spinosa L.); assay: Test Example 1: foliar treatment, growth inhibition rate, prickly sida; type: in vivo; details: 31 g/ha active ingredient, visually observed 17th to 23rd day after application
# Procedure, shortened: (§2)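 Visual scoring of growth inhibition, 0% (untreated) to 100% (complete kill), on days 17–23 following post-emergence spray of formulated compound in water (500 L/ha, 0.1 vol % spreader); plants treated at set leaf stages, e.g. corn 2.0–3.5, wheat 1.7–3.4.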
# corn = assay: Test Example 2: soil application on the day after sowing, growth inhibition rate, corn; type: in vivo, Zea mays L.; details: 250 g/ha active ingredient, observed on 19th to 24th day
# Procedure, shortened: as §1
# [2] = test system: crabgrass (Digitaria sanguinalis L.); assay: Test Example 1: foliar treatment, growth inhibition rate, crabgrass; type: in vivo; details: 31 g/ha active ingredient, visually observed 17th to 23rd day after application
# Procedure, shortened: as §2
# [3] = test system: soybean (Glycine max Merr.); assay: Test Example 1: foliar treatment, growth inhibition rate, soybean; type: in vivo; details: 31 g/ha active ingredient, visually observed 17th to 23rd day after application
# Procedure, shortened: as §2
# [4] = test system: barnyardgrass (Echinochloa crus-galli L.); assay: Test Example 1: foliar treatment, growth inhibition rate, barnyardgrass; type: in vivo; details: 31 g/ha active ingredient, visually observed 17th to 23rd day after application
# Procedure, shortened: as §2
# wheat = assay: Test Example 2: soil application on the day after sowing, growth inhibition rate, wheat; type: in vivo, Triticum spp.; details: 250 g/ha active ingredient, observed on 19th to 24th day
# Procedure, shortened: as §1
# rice (Oryza sativa L.) = assay: Test Example 1: foliar treatment, growth inhibition rate, rice; type: in vivo; details: 31 g/ha active ingredient, visually observed 17th to 23rd day after application
# Procedure, shortened: (§3)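 Visual growth inhibition rating, 0% (as untreated) to 100% (complete kill), taken 17–23 d after foliar spray. Compound was formulated as wettable powder or EC, diluted to 500 L/ha water with 0.1 vol % agricultural spreader, and applied to pot-grown seedlings of corn (2.0–3.5 leaf), greenfoxtail (1.0–3.0), rice (1.0–2.5) and wheat (1.7–3.4).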
# [5] = test system: redroot pigweed (Amaranthus retroflexus L.); assay: Test Example 1: foliar treatment, growth inhibition rate, redroot pigweed; type: in vivo; details: 31 g/ha active ingredient, visually observed 17th to 23rd day after application
# Procedure, shortened: as §2
# corn (Zea mays L.) = assay: Test Example 1: foliar treatment, growth inhibition rate, corn; type: in vivo; details: 31 g/ha active ingredient, visually observed 17th to 23rd day after application
# Procedure, shortened: as §3
# [6] = test system: greenfoxtail (Setaria viridis L.); assay: Test Example 1: foliar treatment, growth inhibition rate, greenfoxtail; type: in vivo; details: 31 g/ha active ingredient, visually observed 17th to 23rd day after application
# Procedure, shortened: as §3
# prickly sida = assay: Test Example 2: soil application on the day after sowing, growth inhibition rate, prickly sida; type: in vivo, Sida spinosa L.; details: 250 g/ha active ingredient, observed on 19th to 24th day
# Procedure, shortened: as §1
# wheat (Triticum spp.) = assay: Test Example 1: foliar treatment, growth inhibition rate, wheat; type: in vivo; details: 31 g/ha active ingredient, visually observed 17th to 23rd day after application
# Procedure, shortened: as §3
# crabgrass = assay: Test Example 2: soil application on the day after sowing, growth inhibition rate, crabgrass; type: in vivo, Digitaria sanguinalis L.; details: 250 g/ha active ingredient, observed on 19th to 24th day
# Procedure, shortened: as §1
# [7] = test system: velvetleaf (Abutilon theophrasti MEDIC.); assay: Test Example 1: foliar treatment, growth inhibition rate, velvetleaf; type: in vivo; details: 31 g/ha active ingredient, visually observed 17th to 23rd day after application
# Procedure, shortened: as §2
# rice = assay: Test Example 2: soil application on the day after sowing, growth inhibition rate, rice; type: in vivo, Oryza sativa L.; details: 250 g/ha active ingredient, observed on 19th to 24th day
# Procedure, shortened: as §1
# redroot pigweed = assay: Test Example 2: soil application on the day after sowing, growth inhibition rate, redroot pigweed; type: in vivo, Amaranthus retroflexus L.; details: 250 g/ha active ingredient, observed on 19th to 24th day
# Procedure, shortened: as §1
SMILES,Growth inhibition rate (%) Barnyardgrass (barnyardgrass),Growth inhibition rate (%) Velvetleaf (velvetleaf),Growth inhibition rate (%) Greenfoxtail (greenfoxtail),Growth inhibition rate (%) Soybean (soybean),Growth inhibition rate (%) Prickly sida [1],Growth inhibition rate (%) Corn (corn),Growth inhibition rate (%) Crabgrass [2],Growth inhibition rate (%) Soybean [3],Growth inhibition rate (%) Barnyardgrass [4],Growth inhibition rate (%) Wheat (wheat),Growth inhibition rate (%) Rice (rice (Oryza sativa L.)),Growth inhibition rate (%) redroot pigweed [5],Growth inhibition rate (%) Corn (corn (Zea mays L.)),Growth inhibition rate (%) Greenfoxtail [6],Growth inhibition rate (%) Prickly sida (prickly sida),Growth inhibition rate (%) Wheat (wheat (Triticum spp.)),Growth inhibition rate (%) Crabgrass (crabgrass),Growth inhibition rate (%) Velvetleaf [7],Growth inhibition rate (%) Rice (rice),Growth inhibition rate (%) redroot pigweed (redroot pigweed)
CSC(=O)Oc1c(C(=O)c2ccc(S(C)(=O)=O)c(C3=NOCC3)c2C)cnn1C [compound 40],100%,90%,100%,60%,70%,0%,80%,90%,95%,10%,70%,90%,10%,95%,85%,0%,100%,90%,90%,100%
CCOc1c(S(C)(=O)=O)ccc(C(=O)c2cnn(CC)c2OC(=O)SCC)c1C [compound 58],60%,10%,70%,0%,70%,0%,98%,98%,95%,0%,80%,90%,0%,100%,70%,40%,100%,100%,70%,90%
CCOC(=O)c1c(S(C)(=O)=O)ccc(C(=O)c2cnn(CC)c2OC(=O)SCC)c1Cl [compound 59],100%,100%,100%,10%,80%,0%,80%,70%,90%,10%,50%,80%,0%,70%,98%,10%,100%,75%,80%,100%
CCCOC(=O)c1c(S(C)(=O)=O)ccc(C(=O)c2cnn(CC)c2OC(=O)SCC)c1Cl [compound 60],100%,60%,60%,20%,70%,0%,90%,50%,95%,0%,70%,80%,0%,60%,70%,0%,100%,70%,40%,95%
CCOC(=O)c1c(S(C)(=O)=O)ccc(C(=O)c2cnn(CC)c2OC(=O)SCC)c1C [compound 61],100%,90%,100%,20%,95%,0%,98%,80%,98%,30%,90%,100%,50%,100%,80%,60%,100%,95%,85%,100%
CCOC(=O)COc1c(S(C)(=O)=O)ccc(C(=O)c2cnn(C)c2OC(=O)SCC)c1C [compound 65],0%,0%,10%,0%,30%,0%,10%,10%,20%,0%,0%,30%,0%,10%,0%,0%,10%,50%,0%,20%
CCCOc1c(S(C)(=O)=O)ccc(C(=O)c2cnn(C)c2OC(=O)SCC)c1C [compound 66],80%,40%,40%,0%,75%,0%,98%,98%,95%,0%,60%,95%,0%,100%,90%,10%,90%,95%,90%,95%
